From patent US4904667A, “1H-1,2,4-thiadiazolo(3,4-b)quinazolin-5-one-2,2-dioxides, and a method for increasing the cardiac output of a mammal with them” (Ortho Pharmaceutical Corporation, priority 1989, dated 1990) come the findings set out here.

Read-outs that look alike come from different tables or passages of the source.

For assay [1], the target named is cyclic nucleotide phosphodiesterase fraction III. As to the kind of experiment: Procedure I: Cyclic Nucleotide Phosphodiesterase Assay. The format is biochemical.
For assay [2], the system named is dog tracheal smooth muscle. Description: Procedure II: Inhibition of calcium dependent smooth muscle contraction (KCl-challenged dog tracheal rings). Conditions: Canis lupus familiaris, 50 mM KCl contraction, dog trachea. Here is the method: INHIBITION OF CALCIUM DEPENDENT SMOOTH MUSCLE CONTRACTION
Farley, J. M. and Miles, P. R. The Sources of Calcium for Acetylcholine-Induced Contractions of Dog Tracheal Smooth Muscle. J. Pharmacol. Exp. Ther. 207: 340-346,l 1978.
Canines, guinea pigs and rabbits
Trachea from dogs killed by excess KCl injection are stored overnight at 4° C. in oxygenated Krebs-Henseleit buffer. Tracheal rings, one cartilage segment wide (5-10 mm), are cut starting from the bronchial end. After cutting the cartilage, the trachealis muscle tissue is suspended in oxygenated Krebs-Henseleit buffer at 37° C. in a 25 ml tissue bath. After a 60 minutes equilibration period, the tissues are challenged with 10 μM carbachol. After 5 minutes the tissues are rinsed and allowed to rest 50 minutes. The tissues are then challenged with 50 mM KCl and, after 30 minutes, the contractions are quantitated. The tissues are then rinsed and reequilibrated for 50 minutes. Test compounds are then added for 10 minutes, and the tissue is rechallenged with 50 mM KCl. After 30 minutes, the contraction is recorded and used to determine the % inhibition of control.
The percent inhibition of smooth muscle contraction is calculated from response data before and after drug treatment. [formula]

The next assay relates to Dog. As to the kind of experiment: Procedure III: Acute In Vivo Cardiotonic Evaluation (cardiac force in anesthetized dogs). Conditions: for Procedure III % Change CF (cardiac force): dose 1.9 mpk, i.v., anesthetized dog, vs pretreatment control. The method, then:
Acute In Vivo Cardiotonic Evaluation
Cardiotonic Activity of Amrinone-Win 40680. Alousi, A. A., Farah, A. I., Lester, G. Y. and Opalka, C. J. Circ. Res. 45:666, 1979.
Adult mongrel dogs are anesthetized with sodium pentobarbital and artifically respired. Arterial pressure is recorded via a femoral artery and the pressure pulse is used to trigger a cardiotachometer for heart rate. Left ventricular pressure is measured with a Millar catheter and dP/dt is derived. Cardiac output is determined by measuring ascending aortic blood flow with an electromagnetic flow probe and myocardial contractile force is measured with a Walton Brodie strain gauge sutured to the right ventricle. Lead II EKG is also recorded.
A standard dose of dopamine or dobutamine is administered to assess myocardial responsiveness.
Test compounds are administered by i.v. infusion or bolus administration and the effects on cardiovascular parameters are determined.
Dose related effects of the test compound on blood pressure, heart rate, dP/dt max. (dp/dt represents the rate at which blood pressure rises), cardiac force, and cardiac output are compared to pretreatment control values, expressed as a % change and rated for activity. Statistical evaluations are made using the appropriate parametric test against a vehicle control.

Where [3] appears, read: concentration inhibiting 50% of cyclic nucleotide phosphodiesterase activity, cyclic AMP substrate, pH 7.4, read-out: Procedure I IC50.

What is called IC50 is the concentration that gives 50% inhibition. By inhibition is commonly meant the percentage by which the read-out fell short of the control. Turning to `O=c1c2ccccc2nc2n1CS(=O)(=O)N2` [Example 8, 1H-1,2,4-Thiadiazolo[3,4-b]quinazolin-5-one-2,2-dioxide], in assay [1] (setting [3]), the IC50 was 150 µM. Moreover, in assay [2], the inhibition at 10 µM is 20%.

On to `O=c1c2cc(Cl)c(Cl)cc2nc2n1CS(=O)(=O)N2` [Example 5, 7,8-Dichloro-1H-1,2,4-thiadiazolo[3,4-b]quinazolin-5-one-2,2-dioxide], for which the inhibition at 2 µM in assay [2] was determined as 11%.

With `COc1ccc2nc3n(c(=O)c2c1OC)CS(=O)(=O)N3` [Example 4, 6,7-Dimethoxy-1H-1,2,4-thiadiazolo[3,4-b]quinazolin-5-one-2,2-dioxide], in assay [2], the inhibition at 2 µM was found to be 43%. The “Procedure III % Change CF (cardiac force)” value (“Procedure III % Change CF” below) with Dog came out at 22%.

As for `O=c1c2ccc(Cl)cc2nc2n1CS(=O)(=O)N2` [Example 7, 8-Chloro-1H-1,2,4-thiadiazolo[3,4-b]quinazolin-5-one-2,2-dioxide], in assay [1] (setting [3]), the IC50 is 150 µM. Moreover, in assay [2], the inhibition at 10 µM was 31%.

`CN(C(=O)CCCOc1ccc2nc3n(c(=O)c2c1)CS(=O)(=O)N3)C1CCCCC1` [Example 9, 7-(N-Cyclohexyl-N-methyl-4-amino-4-oxobutyloxy)-1H-1,2,4-thiadiazolo[3,4-b]quinazolin-5-one-2,2-dioxide]: the IC50 in assay [1] (setting [3]) stood at 13 µM; in assay [1] (fraction III, read-out: IC50 versus cyclic nucleotide phosphodiesterase fraction III) it was 13 µM. The same molecule gave a cardiac force increased with Dog (dog, intravenously at 1.9 mg/kg) of 37%. Further, the “Procedure III % Change CF” value in the assay on Dog amounted to 37%.

Take `O=c1c2cc([N+](=O)[O-])ccc2nc2n1CS(=O)(=O)N2` [Example 2, 7-Nitro-1H-1,2,4-thiadiazolo[3,4-b]quinazolin-5-one-2,2-dioxide]: the inhibition at 10 µM in assay [2] came to 9%.

In the case of `O=c1c2cc(Cl)ccc2nc2n1CS(=O)(=O)N2` [Example 6, 7-Chloro-1H-1,2,4-thiadiazolo[3,4-b]quinazolin-5-one-2,2-dioxide], the IC50 in assay [1] (setting [3]) came out at 70 µM. Moreover, the inhibition at 10 µM in assay [2] amounted to 18%.

In the case of `COc1cc2nc3n(c(=O)c2cc1OC)CS(=O)(=O)N3` [Example 3, 7,8-Dimethoxy-1H-1,2,4-thiadiazolo[3,4-b]quinazolin-5-one-2,2-dioxide], in assay [1] (setting [3]), the half-maximal inhibitory concentration (IC50) amounted to 35 µM. Moreover, in assay [2], the inhibition at 2 µM is 13%. Also, the “Procedure III % Change CF” value in the assay with Dog turned out to be 8%.
